Assays:
[1] = target: MMP-2/MMP-9 (Homo sapiens) (UniProt P08253+P14780); assay: Selectivity ratio of IC50 for full length human MMP2 (amino acids 1 to 660) to IC50 for human MMP9 catalytic domain (amino acids 107 to 446)
[2] = species on record: Homo sapiens; assay: Selectivity ratio of IC50 for human MMP3 catalytic domain (amino acids 100 to 265) to IC50 for human MMP9 catalytic domain (amino acids 107 to 446)
[3] = (§1) AUC in rat at 0.5 mg/kg, iv; assay type: ADME, organism-based, Plasma; design: dose 0.5 mg/kg, route intravenous; details: plasma
[4] = species on record: Homo sapiens; assay: Selectivity ratio of IC50 for human MMP3 catalytic domain (amino acids 100 to 265) to IC50 for full length human MMP2 (amino acids 1 to 660)
[5] = Half life in rat at 0.5 mg/kg, iv; assay type: ADME, organism-based; design: dose 0.5 mg/kg, route intravenous; details: in vivo
[6] = Clearance in rat at 0.5 mg/kg, iv; assay type: ADME, organism-based; design: dose 0.5 mg/kg, route intravenous; details: in vivo
[7] = target: 72 kDa type IV collagenase (Homo sapiens, UniProt P08253); assay: Inhibition of full length human MMP2 (amino acids 1 to 660) using acetyl-Cys(Eu)-Pro-Leu-Gly-Leu-Lys-(QSY7)-Ala-Arg-amide as substrate preincubated for 1 hrs before substrate addition measured after 15 mins by fluorimetry
72 kDa type IV collagenase, sequence (P08253 whole entry, the tested form may be a part): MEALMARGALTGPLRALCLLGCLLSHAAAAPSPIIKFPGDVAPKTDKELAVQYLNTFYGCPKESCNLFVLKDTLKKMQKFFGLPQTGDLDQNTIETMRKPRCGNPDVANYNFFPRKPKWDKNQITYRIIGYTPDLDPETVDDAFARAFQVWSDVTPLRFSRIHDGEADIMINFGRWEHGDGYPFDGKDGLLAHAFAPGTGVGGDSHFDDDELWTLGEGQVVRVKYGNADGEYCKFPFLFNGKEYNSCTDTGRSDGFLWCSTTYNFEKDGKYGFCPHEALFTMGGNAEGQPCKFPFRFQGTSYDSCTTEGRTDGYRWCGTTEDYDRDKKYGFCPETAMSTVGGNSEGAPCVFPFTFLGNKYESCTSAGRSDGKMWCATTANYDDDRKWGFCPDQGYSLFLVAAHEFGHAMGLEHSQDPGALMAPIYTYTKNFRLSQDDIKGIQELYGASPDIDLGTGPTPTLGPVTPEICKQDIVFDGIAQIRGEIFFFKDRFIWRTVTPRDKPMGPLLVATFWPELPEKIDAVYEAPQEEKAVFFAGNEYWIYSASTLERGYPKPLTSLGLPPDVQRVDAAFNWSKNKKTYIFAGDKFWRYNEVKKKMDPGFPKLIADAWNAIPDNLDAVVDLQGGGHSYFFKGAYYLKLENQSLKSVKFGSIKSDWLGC

[8] = target: Voltage-gated inwardly rectifying potassium channel KCNH2 (Homo sapiens, UniProt Q12809); assay: Binding affinity to human Erg at 10 uM
Voltage-gated inwardly rectifying potassium channel KCNH2, sequence (Q12809 whole entry): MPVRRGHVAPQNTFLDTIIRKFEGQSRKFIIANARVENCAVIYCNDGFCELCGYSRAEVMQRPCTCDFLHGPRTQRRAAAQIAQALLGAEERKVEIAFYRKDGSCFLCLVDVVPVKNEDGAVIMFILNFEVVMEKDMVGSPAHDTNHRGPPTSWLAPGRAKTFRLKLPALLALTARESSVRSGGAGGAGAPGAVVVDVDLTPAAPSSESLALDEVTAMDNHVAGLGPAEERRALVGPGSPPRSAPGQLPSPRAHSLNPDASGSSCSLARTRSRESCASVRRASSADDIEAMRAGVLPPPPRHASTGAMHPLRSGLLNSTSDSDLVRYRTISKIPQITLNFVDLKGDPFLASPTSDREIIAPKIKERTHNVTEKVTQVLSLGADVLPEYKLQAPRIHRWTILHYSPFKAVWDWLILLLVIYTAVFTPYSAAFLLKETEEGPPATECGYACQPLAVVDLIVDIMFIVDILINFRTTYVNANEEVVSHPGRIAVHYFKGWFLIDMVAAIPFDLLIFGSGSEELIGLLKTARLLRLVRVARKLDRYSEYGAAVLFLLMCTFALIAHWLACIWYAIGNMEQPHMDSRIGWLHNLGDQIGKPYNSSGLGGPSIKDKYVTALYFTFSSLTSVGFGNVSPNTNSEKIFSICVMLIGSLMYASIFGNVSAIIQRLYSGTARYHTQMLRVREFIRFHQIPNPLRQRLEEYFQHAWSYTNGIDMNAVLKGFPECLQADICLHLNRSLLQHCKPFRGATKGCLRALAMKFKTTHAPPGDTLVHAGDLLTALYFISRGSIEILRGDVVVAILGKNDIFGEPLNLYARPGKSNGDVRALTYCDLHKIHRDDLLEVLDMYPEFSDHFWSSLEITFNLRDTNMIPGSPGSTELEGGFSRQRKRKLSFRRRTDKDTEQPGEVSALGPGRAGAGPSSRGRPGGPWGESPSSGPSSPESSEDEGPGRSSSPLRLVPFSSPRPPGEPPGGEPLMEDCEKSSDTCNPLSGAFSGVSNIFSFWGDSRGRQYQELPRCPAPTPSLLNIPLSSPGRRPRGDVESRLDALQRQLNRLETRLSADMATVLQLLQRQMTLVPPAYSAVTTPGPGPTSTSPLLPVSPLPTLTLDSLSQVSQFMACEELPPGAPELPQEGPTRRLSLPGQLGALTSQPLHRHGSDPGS

[9] = target: CYP2D6 (Homo sapiens, UniProt P10635); assay: Inhibition of CYP 2D6 at 1 uM; assay type: ADME
CYP2D6, sequence (P10635 whole entry, the tested form may be a part): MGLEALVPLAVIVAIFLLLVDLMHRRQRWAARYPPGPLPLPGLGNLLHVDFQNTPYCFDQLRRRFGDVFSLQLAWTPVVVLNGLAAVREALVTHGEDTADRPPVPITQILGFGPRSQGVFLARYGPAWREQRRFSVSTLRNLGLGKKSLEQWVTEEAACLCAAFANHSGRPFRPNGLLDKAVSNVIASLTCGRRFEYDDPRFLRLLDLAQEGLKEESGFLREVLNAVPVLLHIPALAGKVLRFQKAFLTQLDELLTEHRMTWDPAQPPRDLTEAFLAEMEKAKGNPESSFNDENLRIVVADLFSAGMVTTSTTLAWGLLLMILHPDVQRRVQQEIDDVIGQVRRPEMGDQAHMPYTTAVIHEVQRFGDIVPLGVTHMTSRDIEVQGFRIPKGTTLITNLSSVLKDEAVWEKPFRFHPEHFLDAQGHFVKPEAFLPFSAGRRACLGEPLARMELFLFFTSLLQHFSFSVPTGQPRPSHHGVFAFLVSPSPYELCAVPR

[10] = target: T1, Interstitial collagenase (Homo sapiens, UniProt P03956); assay: Inhibition of human MMP1 catalytic domain (amino acids 100 to 262) using acetyl-Cys(Eu)-Pro-Leu-Gly-Leu-Lys-(QSY7)-Ala-Arg-amide as substrate preincubated for 1 hrs before substrate addition measured after 15 mins by fluorimetry
T1 sequence (P03956 whole entry): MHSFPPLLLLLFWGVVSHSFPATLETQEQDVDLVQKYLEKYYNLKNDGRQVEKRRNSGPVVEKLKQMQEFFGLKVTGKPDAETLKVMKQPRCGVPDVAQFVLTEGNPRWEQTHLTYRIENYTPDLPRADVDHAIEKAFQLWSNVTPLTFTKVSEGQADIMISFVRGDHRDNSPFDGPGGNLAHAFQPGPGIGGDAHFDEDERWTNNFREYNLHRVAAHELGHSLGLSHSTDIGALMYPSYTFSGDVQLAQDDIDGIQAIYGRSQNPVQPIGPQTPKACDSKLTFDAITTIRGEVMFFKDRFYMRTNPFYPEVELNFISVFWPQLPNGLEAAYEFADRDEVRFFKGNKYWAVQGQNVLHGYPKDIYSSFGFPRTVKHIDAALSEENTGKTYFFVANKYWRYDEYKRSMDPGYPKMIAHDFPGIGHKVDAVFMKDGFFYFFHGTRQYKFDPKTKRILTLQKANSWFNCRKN

[11] = target: Matrix metalloproteinase-9 (Homo sapiens, UniProt P14780); assay: Inhibition of human MMP9 catalytic domain (amino acids 107 to 446) using acetyl-Cys(Eu)-Pro-Leu-Gly-Leu-Lys-(QSY7)-Ala-Arg-amide as substrate preincubated for 1 hrs before substrate addition measured after 15 mins by fluorimetry
Matrix metalloproteinase-9, sequence (P14780 whole entry, the tested form may be a part): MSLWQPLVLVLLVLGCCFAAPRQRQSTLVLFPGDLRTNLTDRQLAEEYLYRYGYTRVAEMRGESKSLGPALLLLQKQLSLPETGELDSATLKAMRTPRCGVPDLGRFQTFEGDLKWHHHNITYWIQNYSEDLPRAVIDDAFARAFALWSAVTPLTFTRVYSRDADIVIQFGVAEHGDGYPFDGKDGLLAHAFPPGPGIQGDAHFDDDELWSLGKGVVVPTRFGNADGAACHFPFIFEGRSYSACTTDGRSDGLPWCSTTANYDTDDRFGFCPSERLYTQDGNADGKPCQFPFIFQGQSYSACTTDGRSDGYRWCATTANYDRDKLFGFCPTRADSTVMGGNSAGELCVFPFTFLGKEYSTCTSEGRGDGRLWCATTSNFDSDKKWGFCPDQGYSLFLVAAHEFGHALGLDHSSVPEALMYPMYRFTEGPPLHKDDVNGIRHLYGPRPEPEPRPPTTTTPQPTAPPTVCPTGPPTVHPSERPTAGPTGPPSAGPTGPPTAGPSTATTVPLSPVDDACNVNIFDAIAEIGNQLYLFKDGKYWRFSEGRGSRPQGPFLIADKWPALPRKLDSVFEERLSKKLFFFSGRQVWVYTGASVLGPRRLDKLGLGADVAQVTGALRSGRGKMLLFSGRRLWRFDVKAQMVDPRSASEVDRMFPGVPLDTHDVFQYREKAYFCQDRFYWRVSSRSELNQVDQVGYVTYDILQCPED

[12] = target: Stromelysin-1 (Homo sapiens, UniProt P08254); assay: Inhibition of human MMP3 catalytic domain (amino acids 100 to 265) using acetyl-Cys(Eu)-Pro-Leu-Gly-Leu-Lys-(QSY7)-Ala-Arg-amide as substrate preincubated for 1 hrs before substrate addition measured after 15 mins by fluorimetry
Stromelysin-1, sequence (P08254 whole entry, the tested form may be a part): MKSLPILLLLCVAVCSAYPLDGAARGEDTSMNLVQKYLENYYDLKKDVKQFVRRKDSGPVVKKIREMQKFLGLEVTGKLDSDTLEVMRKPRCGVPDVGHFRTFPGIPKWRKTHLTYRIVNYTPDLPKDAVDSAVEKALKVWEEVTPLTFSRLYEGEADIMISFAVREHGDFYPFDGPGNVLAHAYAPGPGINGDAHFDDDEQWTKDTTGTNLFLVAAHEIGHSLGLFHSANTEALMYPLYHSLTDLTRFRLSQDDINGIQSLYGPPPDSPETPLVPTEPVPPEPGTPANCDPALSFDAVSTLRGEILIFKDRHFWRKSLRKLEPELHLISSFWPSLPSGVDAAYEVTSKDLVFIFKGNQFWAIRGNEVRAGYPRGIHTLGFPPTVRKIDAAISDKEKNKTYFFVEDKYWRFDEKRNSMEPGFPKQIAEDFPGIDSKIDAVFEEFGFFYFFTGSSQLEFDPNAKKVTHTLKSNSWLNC

[13] = system: Salmonella typhimurium; assay: Induction of mutagenicity in Salmonella Typhimurium by AMES test; assay type: toxicity, organism-based; details: salmonella enterica subsp. enterica serovar typhimurium
[14] = target: Collagenase 3 (Homo sapiens, UniProt P45452); assay: Inhibition of human MMP13 catalytic domain (amino acids 103 to 268) using acetyl-Cys(Eu)-Pro-Leu-Gly-Leu-Lys-(QSY7)-Ala-Arg-amide as substrate preincubated for 1 hrs before substrate addition measured after 15 mins by fluorimetry
[15] = Volume of distribution at steady state in rat at 0.5 mg/kg, iv; assay type: ADME, organism-based; design: dose 0.5 mg/kg, route intravenous; details: in vivo, read-out: Vdss
[16] = target: CYP3A4 (Homo sapiens, UniProt P08684); assay: Inhibition of CYP 3A4 at 1 uM; assay type: ADME
CYP3A4, sequence (P08684 whole entry): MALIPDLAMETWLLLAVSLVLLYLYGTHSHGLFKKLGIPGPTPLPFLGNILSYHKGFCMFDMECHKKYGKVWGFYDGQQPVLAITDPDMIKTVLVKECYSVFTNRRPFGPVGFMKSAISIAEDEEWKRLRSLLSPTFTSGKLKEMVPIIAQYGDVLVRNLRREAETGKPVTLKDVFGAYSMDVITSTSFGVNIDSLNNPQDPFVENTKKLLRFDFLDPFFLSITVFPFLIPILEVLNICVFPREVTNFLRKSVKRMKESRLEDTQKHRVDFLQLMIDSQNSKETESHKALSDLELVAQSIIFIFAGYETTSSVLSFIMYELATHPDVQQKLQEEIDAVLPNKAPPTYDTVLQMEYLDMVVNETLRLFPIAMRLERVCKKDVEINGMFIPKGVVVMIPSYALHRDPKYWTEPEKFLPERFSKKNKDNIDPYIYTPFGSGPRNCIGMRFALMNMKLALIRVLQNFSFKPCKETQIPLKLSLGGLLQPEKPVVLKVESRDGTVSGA

[17] = Cmax in rat at 0.5 mg/kg, iv; assay type: ADME, organism-based; design: dose 0.5 mg/kg, route intravenous; details: in vivo
[18] = Half life in mouse at 10 mg/kg, po; assay type: ADME, organism-based; design: dose 10 mg/kg, route oral; details: in vivo
[19] = system: Rattus norvegicus; assay: as §1; assay type: ADME, organism-based, Plasma; design: dose 0.5 mg/kg, route intravenous; details: in vivo
[20] = Cmax in mouse at 10 mg/kg, po; assay type: ADME, organism-based; design: dose 10 mg/kg, route oral; details: in vivo

`CN1CCN(CCN([C@@H]2CC=CCN(O)C2=O)S(=O)(=O)c2ccc(Oc3ccc(Cl)cc3)cc2)CC1` showed a Ratio IC50 [1] of 2.

`O=C1[C@H](NS(=O)(=O)c2ccc(Oc3ccc(Cl)cc3)cc2)CC=CCN1O` gave a Ratio IC50 [2] of 100, an AUC [3] of 1230 ng·h/mL and a Ratio IC50 [4] of 100. It also gave a half-life [5] of 14 h, a clearance [6] of 7 mL/min/kg and an IC50 [7] of 0.57 nM. The Activity [8] was under 50%, the inhibition at 1 µM [9] was under 50% and the IC50 [10] was over 1000 nM. For the same compound, the IC50 [11] was 0.58 nM, the IC50 [12] was 86 nM and the Activity [13] was “Non-toxic”. The IC50 [14] was 0.4 nM, the Vd [15] was 3.3 L/kg and the inhibition at 1 µM [16] was under 50%. For the same compound, the Cmax [17] was 4.6 µM.

In the case of `O=C1[C@@H](NS(=O)(=O)c2ccc(Oc3ccc(Cl)cc3)cc2)CC=CCN1O`, the IC50 [7] is reported as 1600 nM and the IC50 [11] is reported as 1120 nM.

For `COc1ccc(Oc2ccc(S(=O)(=O)N[C@@H]3CC=CCN(O)C3=O)cc2)cc1`, the IC50 [7] was 2 nM and the IC50 [11] was 1 nM.

`O=C1[C@H](N(CCN2CCCCC2)S(=O)(=O)c2ccc(Oc3ccc(Cl)cc3)cc2)CC=CCN1O` showed a Ratio IC50 [1] of 2.

`Cc1ccc(-c2ccc(S(=O)(=O)N[C@@H]3CC=CCN(O)C3=O)s2)cc1` gave an IC50 [7] of 4 nM and an IC50 [11] of 9 nM.

For `O=C1[C@H](NS(=O)(=O)c2ccc(Oc3ccncc3)cc2)CC=CCN1O`, the IC50 [7] was 3 nM and the IC50 [11] was 12 nM.

Work on `O=C1[C@H](NS(=O)(=O)c2ccc(Oc3ccc(Cl)cc3)cc2)CCCCN1O` yielded an IC50 [7] of 3.7 nM and an IC50 [11] of 5.9 nM.

`Cc1ccc(C#Cc2ccc(S(=O)(=O)N(CCN3CCOCC3)[C@@H]3CC=CCN(O)C3=O)s2)cc1` showed an IC50 [7] of 2.4 nM, an IC50 [11] of 0.8 nM and a Ratio IC50 [1] of 2.

Work on `O=C1[C@H](NS(=O)(=O)c2ccc(Oc3ccc(C(F)(F)F)cc3)cc2)CC=CCN1O` yielded an IC50 [7] of 2 nM and an IC50 [11] of 2 nM.

Work on `CC1=CC[C@@H](NS(=O)(=O)c2ccc(Oc3ccc(Cl)cc3)cc2)C(=O)N(O)C1` yielded an IC50 [7] of 2 nM and an IC50 [11] of 1.3 nM.

`Cc1ccc(-c2ccc(S(=O)(=O)N(CCN3CCOCC3)[C@@H]3CC=CCN(O)C3=O)s2)cc1` showed an IC50 [7] of 7 nM and an IC50 [11] of 11 nM.

Work on `O=C1[C@H](NS(=O)(=O)c2ccc(-c3ccc(Cl)cc3)cc2)CC=CCN1O` yielded an IC50 [7] of 85 nM and an IC50 [11] of 1510 nM.

For `COc1ccc(-c2ccc(S(=O)(=O)N[C@@H]3CC=CCN(O)C3=O)s2)cc1`, the Ratio IC50 [2] was 100, the Ratio IC50 [4] was 100 and the IC50 [10] was over 1000 nM. The IC50 [11] was 11 nM, the IC50 [12] was 493 nM and the IC50 [14] was 3 nM.

Compound `O=C1NCC=CC[C@H]1NS(=O)(=O)c1ccc(Oc2ccc(Cl)cc2)cc1` has an IC50 [7] of over 1000 nM and an IC50 [11] of over 1000 nM.

Work on `O=C1[C@H](NS(=O)(=O)c2ccc(-c3ccc(Cl)cc3)s2)CC=CCN1O` yielded an IC50 [7] of 11 nM and an IC50 [11] of 16 nM.

Compound `O=C1[C@H](NS(=O)(=O)c2ccc(Oc3ccc(Cl)cc3)cc2)CC=C(CN2CCOCC2)CN1O` has a Ratio IC50 [2] of 100, a Ratio IC50 [4] of 100 and an IC50 [7] of 0.53 nM. It also gave an IC50 [10] of over 1000 nM, an IC50 [11] of 0.46 nM and an IC50 [12] of 39 nM. For the same compound, the IC50 [14] was 0.2 nM.

With `O=C1[C@H](N(CCN2CCOCC2)S(=O)(=O)c2ccc(Oc3ccc(Cl)cc3)cc2)CC=CCN1O` the Ratio IC50 [2] was 100, the half-life [18] was 1 h and the AUC [19] was 1831 ng·h/mL. For the same compound, the Ratio IC50 [4] was 100, the half-life [5] was 2 h and the IC50 [7] was 0.39 nM. The Activity [8] was under 50%, the inhibition at 1 µM [9] was under 50% and the IC50 [10] was over 1000 nM. The IC50 [11] was 0.22 nM, the IC50 [12] was 90 nM and the Activity [13] was “Non-toxic”. For the same compound, the Ratio IC50 [1] was 2, the IC50 [14] was 0.7 nM and the Vd [15] was 1.4 L/kg. The inhibition at 1 µM [16] was under 50%, the Cmax [17] was 4.4 µM and the Cmax [20] was 38.3 µM.

For `O=C1[C@H](N(CCN2CCOCC2)S(=O)(=O)c2ccc(-c3ccc(Cl)cc3)s2)CC=CCN1O`, the IC50 [7] was 16 nM and the IC50 [11] was 17 nM.

For `O=C(N[C@@H]1CC=CCN(O)C1=O)c1ccc(Oc2ccc(Cl)cc2)cc1`, the IC50 [7] was 2320 nM and the IC50 [11] was 5090 nM.

Work on `O=C1[C@H](NS(=O)(=O)c2ccc(Oc3ccccc3)cc2)CC=CCN1O` yielded an IC50 [7] of 1 nM and an IC50 [11] of 2 nM.
